Consider 4 compounds from patent publication US9518061B2, “Substituted pyrazolylpyrazole derivative and use of same as herbicide” (KYOYU AGRI CO., LTD., priority 2013, dated 2016).

SMILES strings stand for the structures.

In series [1] the test system is Echinochloa crus-galli. Nature of the series: Paddy herbicidal activity test. Type of series: in vivo. The following applies: irrigated paddy pot, treated at 3.5 leaf stage of Echinochloa crus-galli, 30 days. The method, boiled down:
(§1)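 Flooded paddy-soil pots (3 cm water) seeded with weeds; rice at 2.0-leaf stage transplanted when Echinochloa reached 3.5-leaf stage, then diluted wettable powder dropped in at set rate per are. After 30 days in greenhouse (avg 30° C), growth inhibition (%) scored on 11-level scale vs untreated (efficacy) or complete-kill group (phytotoxicity).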

In series [2] the test system is Monochoria vaginalis. Nature of the series: Paddy herbicidal activity test. Type of series: in vivo. The following applies: irrigated paddy pot, 30 days. The gist of the method:
as §1

Series [3] has as its system Scirpus juncoides. Briefly: Paddy herbicidal activity test. It counts as in vivo. The following applies: irrigated paddy pot, 30 days. The method, boiled down: as §1
The subject of series [4] is Rice plants. Briefly: Paddy herbicidal activity test, phytotoxicity to transplanted rice. It counts as in vivo. The settings on record: rice transplanted in 2.0 leaf stage, 30 days. The method, boiled down: as §1
Series [5] concerns Amaranthus retroflexus. Nature of the series: Farming soil treatment test. The following applies: soil surface spray prior to weed growth, 30 days. It counts as in vivo. The procedure: (§2) 2. Farming Soil Treatment Test
(§3) Field soil was filled into a 1/6000 are pot followed by seeding with Digitaria ciliaris, Chenopodium album and Amaranthus retroflexus and covering with soil.
(§4) Wettable powder of compounds of formula (D shown in Table 1 prepared in compliance with the preparation examples were diluted with water to the prescribed amount of chemical and uniformly sprayed onto each soil surface layer using 10 liters of sprayed water per are prior to weed growth following seeding.
(§5) After treating for 30 days in a glass greenhouse at an average atmospheric temperature of 30° C., the herbicidal efficacy thereof was investigated.
(§6) Evaluation of herbicidal efficacy was carried out in the same manner as the above-mentioned Test Example 1.

Series [6] relates to Chenopodium album. Briefly: Farming soil treatment test. Type of series: in vivo. The settings on record: soil surface spray prior to weed growth, 30 days. The procedure: as §2, §3, §4, §5, §6
The subject of series [7] is Digitaria ciliaris. Briefly: Farming soil treatment test. The following applies: soil surface spray prior to weed growth, 30 days. It counts as in vivo. The procedure:
as §2, §3, §4, §5, §6

Series [8] relates to Amaranthus retroflexus. Nature of the series: Weed foliar treatment test. It counts as in vivo. The following applies: foliar spray, 3 weeks. Here is the method:
(§7) 3. Weed Foliar Treatment Test
(§8) Soil was filled into a 1/6000 are pot followed by seeding with Digitaria ciliaris, Chenopodium album and Amaranthus retroflexus, covering with soil, and cultivating in a glass greenhouse at an average atmospheric temperature of 25° C.
(§9) Wettable powder of Target Compound (I) shown in Table 1 prepared in compliance with the preparation examples were diluted with water to the prescribed amount of chemical and uniformly sprayed onto the weeds using 15 liters of sprayed water per are when Digitaria ciliaris had grown to the 1.0 to 2.0 leaf stage.
(§10) After treating for 3 weeks in a glass greenhouse at an average atmospheric temperature of 25° C., the herbicidal efficacy thereof was investigated.
as §6

In series [9] the test system is Chenopodium album. Briefly: Weed foliar treatment test. It counts as in vivo. The settings on record: foliar spray, 3 weeks. The procedure: as §7, §8, §9, §10, §6
The subject of series [10] is Digitaria ciliaris. Nature of the series: Weed foliar treatment test. Type of series: in vivo. The following applies: foliar spray at 1.0 to 2.0 leaf stage of Digitaria ciliaris, 3 weeks. The procedure:
as §7, §8, §9, §10, §6

For orientation: melting point means the temperature of the solid-liquid transition. Turning to `COCCN(C(=O)C(F)(F)F)c1c(C#N)cnn1-c1nn2c(c1Cl)CCCC2` [Compound 2, N-(1-(3-chloro-4,5,6,7-tetrahydropyrazolo[1,5-a]pyridin-2-yl)-4-cyanopyrazol-5-yl)-N-(2-methoxyethyl)-2,2,2-trifluoroacetamide], the melting point was 102 to 103 °C. For the same compound, the “herbicidal efficacy (growth inhibition rate level) Echinochloa crus-galli” value in series [1] (1g a.i./10a) was 9 (90% to less than 100%). Besides, the “herbicidal efficacy (growth inhibition rate level) Echinochloa crus-galli” value in series [1] (5g a.i./10a) is given as 9 (90% to less than 100%). Moreover, in series [2] (1g a.i./10a), the “herbicidal efficacy (growth inhibition rate level) Monochoria vaginalis” value was 8 (80% to less than 90%). Also, the “herbicidal efficacy (growth inhibition rate level) Monochoria vaginalis” value in series [2] (5g a.i./10a) is recorded as 9 (90% to less than 100%). For the same compound, in series [3] (1g a.i./10a), the “herbicidal efficacy (growth inhibition rate level) Scirpus juncoides” value was 9 (90% to less than 100%). Further, the “herbicidal efficacy (growth inhibition rate level) Scirpus juncoides” value in [3] (5g a.i./10a) is on record as 9 (90% to less than 100%). Moreover, the “phytotoxicity (growth inhibition rate level) Rice plants” value in series [4] (1g a.i./10a) is listed as 0 (0 (exponent): 0% to less than 10% (growth inhibition rate)). For the same compound, the “phytotoxicity (growth inhibition rate level) Rice plants” value in series [4] (5g a.i./10a) is given as 1 (10% to less than 20%). Further, the “herbicidal efficacy (growth inhibition rate level) Amaranthus retroflexus” value in [5] (5g a.i./10a) is reported as 10 (100%). The “herbicidal efficacy (growth inhibition rate level) Amaranthus retroflexus” value in series [5] (10g a.i./10a) is listed as 10 (100%). The “herbicidal efficacy (growth inhibition rate level) Chenopodium album” value in [6] (5g a.i./10a) is on record as 10 (100%). Further, in [6] (10g a.i./10a), the “herbicidal efficacy (growth inhibition rate level) Chenopodium album” value is on record as 10 (100%). The “herbicidal efficacy (growth inhibition rate level) Digitaria ciliaris” value in [7] (5g a.i./10a) is given as 10 (100%). In series [7] (10g a.i./10a), the “herbicidal efficacy (growth inhibition rate level) Digitaria ciliaris” value was 10 (100%). The “herbicidal efficacy (growth inhibition rate level) Amaranthus retroflexus” value in [8] (5g a.i./10a) is 10 (100%). Moreover, the “herbicidal efficacy (growth inhibition rate level) Amaranthus retroflexus” value in series [8] (10g a.i./10a) is listed as 10 (100%). Further, the “herbicidal efficacy (growth inhibition rate level) Chenopodium album” value in series [9] (5g a.i./10a) is 10 (100%). Besides, the “herbicidal efficacy (growth inhibition rate level) Chenopodium album” value in series [9] (10g a.i./10a) is on record as 10 (100%). Moreover, in series [10] (5g a.i./10a), the “herbicidal efficacy (growth inhibition rate level) Digitaria ciliaris” value is reported as 10 (100%). In series [10] (10g a.i./10a), the “herbicidal efficacy (growth inhibition rate level) Digitaria ciliaris” value is 10 (100%).
As to `N#Cc1cnn(-c2nn3c(c2Cl)CCCC3)c1N(CCCl)C(=O)C(F)(F)F` [Compound 1, N-(2-chloroethyl)-N-(1-(3-chloro-4,5,6,7-tetrahydropyrazolo[1,5-a]pyridin-2-yl)-4-cyanopyrazol-5-yl)-2,2,2-trifluoroacetamide], the melting point was in the range of 87 to 89 °C. For the same compound, the “herbicidal efficacy (growth inhibition rate level) Echinochloa crus-galli” value in series [1] (1g a.i./10a) is 9 (90% to less than 100%). Also, the “herbicidal efficacy (growth inhibition rate level) Echinochloa crus-galli” value in series [1] (5g a.i./10a) is given as 10 (100%). Besides, the “herbicidal efficacy (growth inhibition rate level) Monochoria vaginalis” value in [2] (1g a.i./10a) is 8 (80% to less than 90%). For the same compound, the “herbicidal efficacy (growth inhibition rate level) Monochoria vaginalis” value in series [2] (5g a.i./10a) is recorded as 9 (90% to less than 100%). Also, the “herbicidal efficacy (growth inhibition rate level) Scirpus juncoides” value in series [3] (1g a.i./10a) was 9 (90% to less than 100%). The “herbicidal efficacy (growth inhibition rate level) Scirpus juncoides” value in series [3] (5g a.i./10a) is reported as 10 (100%). Moreover, the “phytotoxicity (growth inhibition rate level) Rice plants” value in series [4] (1g a.i./10a) is given as 0 (0 (exponent): 0% to less than 10% (growth inhibition rate)). Further, in [4] (5g a.i./10a), the “phytotoxicity (growth inhibition rate level) Rice plants” value was 1 (10% to less than 20%). The “herbicidal efficacy (growth inhibition rate level) Amaranthus retroflexus” value in [5] (5g a.i./10a) is recorded as 10 (100%). Further, the “herbicidal efficacy (growth inhibition rate level) Amaranthus retroflexus” value in [5] (10g a.i./10a) was 10 (100%). In [6] (5g a.i./10a), the “herbicidal efficacy (growth inhibition rate level) Chenopodium album” value was 10 (100%). Also, the “herbicidal efficacy (growth inhibition rate level) Chenopodium album” value in series [6] (10g a.i./10a) is given as 10 (100%). Also, in series [7] (5g a.i./10a), the “herbicidal efficacy (growth inhibition rate level) Digitaria ciliaris” value was 10 (100%). The “herbicidal efficacy (growth inhibition rate level) Digitaria ciliaris” value in [7] (10g a.i./10a) is listed as 10 (100%). In [8] (5g a.i./10a), the “herbicidal efficacy (growth inhibition rate level) Amaranthus retroflexus” value is reported as 10 (100%). The “herbicidal efficacy (growth inhibition rate level) Amaranthus retroflexus” value in series [8] (10g a.i./10a) is listed as 10 (100%). The “herbicidal efficacy (growth inhibition rate level) Chenopodium album” value in series [9] (5g a.i./10a) is recorded as 10 (100%). Also, in [9] (10g a.i./10a), the “herbicidal efficacy (growth inhibition rate level) Chenopodium album” value is 10 (100%). For the same compound, the “herbicidal efficacy (growth inhibition rate level) Digitaria ciliaris” value in series [10] (5g a.i./10a) is 10 (100%). Moreover, the “herbicidal efficacy (growth inhibition rate level) Digitaria ciliaris” value in series [10] (10g a.i./10a) is given as 10 (100%).
Consider `COCCNc1c(C#N)cnn1-c1nn2c(c1Cl)CCCC2` [Control agent 4.63], for which the “herbicidal efficacy (growth inhibition rate level) Echinochloa crus-galli” value is on record as 2 (20% to less than 30%) in series [1] (1g a.i./10a) and 3 (30% to less than 40%) in series [1] (5g a.i./10a). Moreover, the figures for the “herbicidal efficacy (growth inhibition rate level) Monochoria vaginalis” value in series [2] (1g a.i./10a) and in series [2] (5g a.i./10a) were 1 (10% to less than 20%) and 2 (20% to less than 30%), respectively. Besides, the “herbicidal efficacy (growth inhibition rate level) Scirpus juncoides” value in series [3] (1g a.i./10a) is 1 (10% to less than 20%); in series [3] (5g a.i./10a) it was 2 (20% to less than 30%). The “phytotoxicity (growth inhibition rate level) Rice plants” value in series [4] (1g a.i./10a) was 0 (0 (exponent): 0% to less than 10% (growth inhibition rate)); in series [4] (5g a.i./10a) it was 1 (10% to less than 20%). Moreover, the “herbicidal efficacy (growth inhibition rate level) Amaranthus retroflexus” value was 4 (40% to less than 50%) in series [5] (5g a.i./10a), 5 (50% to less than 60%) in [5] (10g a.i./10a), 3 (30% to less than 40%) in series [8] (5g a.i./10a) and 6 (60% to less than 70%) in [8] (10g a.i./10a). The “herbicidal efficacy (growth inhibition rate level) Chenopodium album” value is 4 (40% to less than 50%) in [6] (5g a.i./10a), 5 (50% to less than 60%) in series [6] (10g a.i./10a), 3 (30% to less than 40%) in series [9] (5g a.i./10a) and 5 (50% to less than 60%) in [9] (10g a.i./10a). Further, the “herbicidal efficacy (growth inhibition rate level) Digitaria ciliaris” value in [7] (5g a.i./10a) is on record as 3 (30% to less than 40%); in series [7] (10g a.i./10a), 3 (30% to less than 40%); in series [10] (5g a.i./10a), 2 (20% to less than 30%); in [10] (10g a.i./10a), 4 (40% to less than 50%).
With `N#Cc1cnn(-c2nn3c(c2Cl)CCCC3)c1NC(=O)C(F)(F)F` [Control agent 4.185], the “herbicidal efficacy (growth inhibition rate level) Echinochloa crus-galli” value is 2 (20% to less than 30%) in [1] (1g a.i./10a) and 4 (40% to less than 50%) in series [1] (5g a.i./10a). Moreover, the “herbicidal efficacy (growth inhibition rate level) Monochoria vaginalis” value in series [2] (1g a.i./10a) and in [2] (5g a.i./10a) was 0 (0 (exponent): 0% to less than 10% (growth inhibition rate)) throughout. Moreover, the “herbicidal efficacy (growth inhibition rate level) Scirpus juncoides” value in [3] (1g a.i./10a) is recorded as 5 (50% to less than 60%); in [3] (5g a.i./10a) it was 6 (60% to less than 70%). Moreover, the “phytotoxicity (growth inhibition rate level) Rice plants” value in [4] (1g a.i./10a) and in series [4] (5g a.i./10a) was 2 (20% to less than 30%) each time. Moreover, the “herbicidal efficacy (growth inhibition rate level) Amaranthus retroflexus” value in series [5] (5g a.i./10a) was 5 (50% to less than 60%); in series [5] (10g a.i./10a) it was 6 (60% to less than 70%); in [8] (5g a.i./10a) it was 6 (60% to less than 70%); in [8] (10g a.i./10a), 6 (60% to less than 70%). Further, the “herbicidal efficacy (growth inhibition rate level) Chenopodium album” value is 4 (40% to less than 50%) in series [6] (5g a.i./10a), 5 (50% to less than 60%) in series [6] (10g a.i./10a), 5 (50% to less than 60%) in series [9] (5g a.i./10a) and 6 (60% to less than 70%) in series [9] (10g a.i./10a). In addition, the “herbicidal efficacy (growth inhibition rate level) Digitaria ciliaris” value is on record as 3 (30% to less than 40%) in series [7] (5g a.i./10a), 5 (50% to less than 60%) in [7] (10g a.i./10a), 4 (40% to less than 50%) in [10] (5g a.i./10a) and 6 (60% to less than 70%) in series [10] (10g a.i./10a).
